Experimental findings from patent publication US20200129535A1, “DESMOCOLLIN 1 INHIBITORS FOR THE PREVENTION OR TREATMENT OF ATHEROSCLEROSIS” (priority 2017, published 2020) are described below.

The test system of the assay is Primary human skin fibroblasts. The assay can be described thus: apoA-I-mediated cholesterol efflux study (promotion of HDL biogenesis) with compounds. It counts as cell-based. To be noted: for EC50: Homo sapiens, Skin fibroblast, [3H]-cholesterol-labelled, cholesterol-loaded fibroblasts, 5 μg/ml apoA-I for 24 h, compound added during equilibration and apoA-I treatment. As for the experimental part:
FIGS. 17(A) to 17(C) show rutin (A), acarbose (B) and docetaxel (C) can promote apoA-I-mediated cholesterol efflux. Primary human skin fibroblasts were labelled with 0.2 μCi/ml of [^3H]-cholesterol during growth, loaded with 30 μg/ml of unlabeled cholesterol for 24 h, equilibrated for 24 h, and treated with 5 μg/ml of apoA-I for 24 h to determine efflux of cellular cholesterol by apoA-I. The indicated concentrations of rutin, acarbose and docetaxel were added during the equilibration and apoA-I treatment period. Results are expressed as percentage of total (cell plus medium) [^3H]-sterol appearing in the medium. Values are the mean+SD of quadruplicate determinations. One-way analysis of variance with Dunnett's post-hoc correction was performed to calculate multiplicity-adjusted P values. *P<0.05; **P<0.001; ***P<0.0001 compared with the group treated with apoA-I alone.
To investigate the biological activity of the 51 compounds identified in Example 3 in modulating HDL biogenesis, we performed an apoA-I-mediated cholesterol efflux study as described previously (see Choi, H. Y. et al., J Biol Chem 278, 32569-32577 (2003)).

Like-named read-outs stand apart in the source and are kept apart here.

With `C[C@H]1O[C@H](O[C@H]2[C@H](O)[C@@H](O)[C@@H](O[C@H]3[C@H](O)[C@@H](O)C(O)O[C@@H]3CO)O[C@@H]2CO)[C@H](O)[C@@H](O)[C@@H]1N[C@H]1C=C(CO)[C@@H](O)[C@H](O)[C@H]1O` (stereo partly shown) [No. 2, Acarbose], the EC50 (read-out: EC50 value, promotion of apoA-I-mediated HDL biogenesis) was determined as 6.59 µM.

Take `CC(=O)O[C@@]12CO[C@@H]1C[C@H](O)[C@@]1(C)C(=O)[C@H](O)C3=C(C)[C@@H](OC(=O)[C@H](O)[C@@H](NC(=O)OC(C)(C)C)c4ccccc4)C[C@@](O)([C@@H](OC(=O)c4ccccc4)[C@H]21)C3(C)C` [No. 17, Docetaxel]: the “effect on apoA-I-mediated cholesterol efflux” value (FIG. 17, compared with the group treated with apoA-I alone) was “promote”. In addition, under “read-out: half-maximal effective concentration (EC50), promotion of apoA-I-mediated HDL biogenesis”, the EC50 amounted to 0.00072 µM. Under “dose-response curves, FIG. 17”, the “potency rank in promoting HDL biogenesis among the 3 most active compounds” value is listed as “most potent”.
